For six compounds, inhibition results are on record in paper PMC9516332 (Frontiers in Oncology, 2022).

What all share (assay): Kinase panel profiling at 1 µmol/L (MSA or IMAP), percentage inhibition
Assay type in all cases: biochemical

Test [1] deals with panel of 255 wild-type kinases (Homo sapiens, UniProt P06493). To be noted: CDC2/CycB1 kinase assay; 1 µmol/L single concentration; read-out: %-inhibition CDC2/CycB1.
The target in test [2] is panel of 255 wild-type kinases (Homo sapiens, UniProt P19525). To be noted: kinase PKR; 1 µmol/L single concentration; read-out: %-inhibition at 1 µmol/L, PKR.
Test [3] has as its target panel of 255 wild-type kinases (Homo sapiens, UniProt P45984). To be noted: kinase JNK2; 1 µmol/L single concentration; read-out: %-inhibition at 1 µmol/L, JNK2.
The target of test [4] is T1, panel of 255 wild-type kinases (Homo sapiens, UniProt P54760).
T1 sequence (P54760 16-987): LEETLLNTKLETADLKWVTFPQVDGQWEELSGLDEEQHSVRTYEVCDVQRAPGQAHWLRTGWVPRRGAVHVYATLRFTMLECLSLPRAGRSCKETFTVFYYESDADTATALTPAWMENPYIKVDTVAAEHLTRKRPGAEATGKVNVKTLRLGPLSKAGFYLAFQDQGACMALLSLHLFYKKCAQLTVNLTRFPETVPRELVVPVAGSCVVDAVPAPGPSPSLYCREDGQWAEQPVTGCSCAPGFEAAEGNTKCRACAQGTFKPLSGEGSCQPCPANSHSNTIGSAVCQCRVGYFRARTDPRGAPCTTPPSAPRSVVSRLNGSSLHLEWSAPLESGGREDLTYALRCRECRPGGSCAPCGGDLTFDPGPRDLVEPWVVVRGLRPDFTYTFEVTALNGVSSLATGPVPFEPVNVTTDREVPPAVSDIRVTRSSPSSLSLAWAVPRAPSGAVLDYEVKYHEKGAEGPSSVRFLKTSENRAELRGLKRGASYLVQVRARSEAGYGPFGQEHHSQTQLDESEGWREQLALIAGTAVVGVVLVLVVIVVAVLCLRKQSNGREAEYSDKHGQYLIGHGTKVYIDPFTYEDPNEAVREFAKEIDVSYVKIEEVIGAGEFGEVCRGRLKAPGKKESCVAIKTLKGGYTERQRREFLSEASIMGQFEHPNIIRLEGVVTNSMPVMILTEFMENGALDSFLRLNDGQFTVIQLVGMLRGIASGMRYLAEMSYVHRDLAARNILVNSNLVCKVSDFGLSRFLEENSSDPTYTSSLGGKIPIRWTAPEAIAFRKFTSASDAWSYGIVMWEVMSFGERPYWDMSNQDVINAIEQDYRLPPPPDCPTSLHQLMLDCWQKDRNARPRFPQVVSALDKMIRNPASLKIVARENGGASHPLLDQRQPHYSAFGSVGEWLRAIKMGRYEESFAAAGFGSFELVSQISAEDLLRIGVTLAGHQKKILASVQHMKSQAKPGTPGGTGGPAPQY
To be noted: kinase EPHB4; 1 µmol/L single concentration; read-out: %-inhibition at 1 µmol/L, EPHB4.

Test [5] concerns the target T2, panel of 255 wild-type kinases (Homo sapiens, UniProt Q13188).
T2 sequence (Q13188 1-491): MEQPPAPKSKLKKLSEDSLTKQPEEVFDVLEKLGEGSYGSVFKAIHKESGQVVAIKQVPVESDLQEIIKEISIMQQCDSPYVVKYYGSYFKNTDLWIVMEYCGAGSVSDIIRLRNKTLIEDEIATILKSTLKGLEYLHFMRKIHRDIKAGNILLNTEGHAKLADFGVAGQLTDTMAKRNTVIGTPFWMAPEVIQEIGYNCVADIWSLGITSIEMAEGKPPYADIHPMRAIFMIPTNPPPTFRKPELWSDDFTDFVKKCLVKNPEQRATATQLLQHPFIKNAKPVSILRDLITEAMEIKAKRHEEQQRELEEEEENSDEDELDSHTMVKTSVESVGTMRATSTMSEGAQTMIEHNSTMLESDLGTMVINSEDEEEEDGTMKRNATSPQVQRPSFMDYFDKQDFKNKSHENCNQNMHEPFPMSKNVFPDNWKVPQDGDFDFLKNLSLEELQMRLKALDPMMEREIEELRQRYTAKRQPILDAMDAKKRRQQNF
To be noted: MST2; 1 µmol/L single concentration; read-out: %-inhibition, MST2.

Test [6] concerns the target T3, panel of 255 wild-type kinases (Homo sapiens, UniProt Q14164).
T3 sequence (Q14164 1-716): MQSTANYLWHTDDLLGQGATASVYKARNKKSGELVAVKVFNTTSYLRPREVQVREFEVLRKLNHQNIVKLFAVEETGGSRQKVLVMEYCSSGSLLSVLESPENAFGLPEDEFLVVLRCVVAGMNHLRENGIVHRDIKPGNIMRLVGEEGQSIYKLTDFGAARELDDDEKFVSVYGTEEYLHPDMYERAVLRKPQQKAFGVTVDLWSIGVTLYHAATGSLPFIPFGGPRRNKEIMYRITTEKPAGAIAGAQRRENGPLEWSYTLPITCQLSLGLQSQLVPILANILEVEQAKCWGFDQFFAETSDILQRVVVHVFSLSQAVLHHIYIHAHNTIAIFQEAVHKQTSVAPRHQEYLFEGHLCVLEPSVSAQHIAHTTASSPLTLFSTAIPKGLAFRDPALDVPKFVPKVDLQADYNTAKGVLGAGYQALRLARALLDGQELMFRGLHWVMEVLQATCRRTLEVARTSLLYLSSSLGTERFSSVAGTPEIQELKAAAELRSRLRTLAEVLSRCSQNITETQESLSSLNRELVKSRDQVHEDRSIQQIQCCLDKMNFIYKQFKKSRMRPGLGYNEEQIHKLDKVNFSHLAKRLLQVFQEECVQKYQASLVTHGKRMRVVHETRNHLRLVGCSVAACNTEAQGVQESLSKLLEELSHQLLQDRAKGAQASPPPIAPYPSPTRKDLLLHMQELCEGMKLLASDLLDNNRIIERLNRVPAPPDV
To be noted: kinase IKKε; 1 µmol/L single concentration; read-out: %-inhibition at 1 µmol/L, IKKε.

For test [7], the target named is panel of 255 wild-type kinases (Homo sapiens, UniProt Q16816). To be noted: kinase PHKG1; 1 µmol/L single concentration; read-out: %-inhibition at 1 µmol/L, PHKG1.

For `CO[C@]1(C(=O)N[C@@H](C)c2ccc(-n3cc(F)cn3)nc2)CC[C@H](c2nc(C)cc(Nc3cc(C)[nH]n3)n2)CC1` [pralsetinib], the inhibition at 1 µM in test [1] is 15%; in test [2], 8%; in test [3], 5%; in test [4], 56%; in test [5], 5.55%; in test [6], -5%. The inhibition at 1 µM in test [7] was 1.67%.

With `C[C@H]1Oc2cc(cnc2N)-c2c(nn(C)c2C#N)CN(C)C(=O)c2ccc(F)cc21` [lorlatinib], the inhibition at 1 µM is 3.16% in test [1]; 0.666% in test [2]; 3.24% in test [3]; 43% in test [4]; 8% in test [5]; -3.78% in test [6]. The inhibition at 1 µM in test [7] turned out to be 65%.

Regarding `CCn1c(=O)c(-c2cc(NC(=O)Nc3ccccc3)c(F)cc2Br)cc2cnc(NC)cc21` [ripretinib], the inhibition at 1 µM in test [1] was -5.56%; in test [2], -6%; in test [3], 35%; in test [4], 90%; in test [5] it was 0.11%; in test [6], -5%. Also, the inhibition at 1 µM in test [7] stood at 1.76%.

For `Cc1nc(NC(=O)N2CCC[C@H]2C(N)=O)sc1-c1ccnc(C(C)(C)C(F)(F)F)c1` [alpelisib], the inhibition at 1 µM in test [1] is -3.48%; in test [2], -1%; in test [3], 0.494%; in test [4] it was 3.19%; in test [5], 1.52%; in test [6], -4.31%. In test [7], the inhibition at 1 µM is -1.22%.

`FC(F)(F)c1ccc(CNc2ccc(Cc3c[nH]c4ncc(Cl)cc34)cn2)cn1` [pexidartinib]: the inhibition at 1 µM in test [1] was 32%; in test [2] it was -10%; in test [3] it was 2.5%; in test [4], -2%; in test [5], 10%; in test [6], -1.81%. Also, the inhibition at 1 µM in test [7] was found to be 21%.

For `O=C(Nc1cnn2ccc(N3CCC[C@@H]3c3cc(F)ccc3F)nc12)N1CC[C@H](O)C1` [larotrectinib], the inhibition at 1 µM in test [1] is -7%; in test [2], -2.17%; in test [3] it was -0.671%; in test [4], -2.17%; in test [5], 0.182%; in test [6], 7%. The inhibition at 1 µM in test [7] was determined as 1.81%.
